Measurements reported in ChEMBL document CHEMBL4680105, “Discovery of Benzenesulfonamide Derivatives as Carbonic Anhydrase Inhibitors with Effective Anticonvulsant Action: Design, Synthesis, and Pharmacological Evaluation” (J Med Chem, 2018).

Tests used:
[1] = biological target: Carbonic anhydrase 9 (Homo sapiens, UniProt Q16790); assay: Inhibition of recombinant human carbonic anhydrase 9 by stopped-flow CO2 hydration assay
[2] = system: Mus musculus; assay: (§1) Anticonvulsant activity in Swiss Albino mouse model of maximal electroshock-induced seizure assessed as protection against seizure by measuring suppression of hind limb extension at 30 mg/kg, ip pretreated for 30 mins before seizure stimulation and measured after 0.5 hrs by MES test relative to control; format: functional; settings: time 60 min, 1 h
[3] = system: Mus musculus; assay: as §1, with “at 100” for “at 30”; format: functional; settings: time 60 min, 1 h
[4] = system: Mus musculus; assay: as §1, with “3” for “0.5”; format: functional; settings: time 3.5 hrs
[5] = system: Mus musculus; assay: as §1, with “at 100” for “at 30”, “after 3” for “after 0.5”; format: functional; settings: 0.5 h
[6] = system: Mus musculus; assay: Anticonvulsant activity in Swiss Albino mouse assessed as protection against seizure at 30 mg/kg, ip measured after 0.5 hrs by sc-PTZ seizure test relative to control; format: functional
[7] = system: Mus musculus; assay: Anticonvulsant activity in Swiss Albino mouse assessed as protection against seizure at 30 mg/kg, ip measured after 3 hrs by sc-PTZ seizure test relative to control; format: functional
[8] = system: Mus musculus; assay: Anticonvulsant activity in Swiss Albino mouse assessed as protection against seizure at 100 mg/kg, ip measured after 0.5 hrs by sc-PTZ seizure test relative to control; format: functional
[9] = system: Mus musculus; assay: Anticonvulsant activity in Swiss Albino mouse assessed as protection against seizure at 100 mg/kg, ip measured after 3 hrs by sc-PTZ seizure test relative to control; format: functional
[10] = system: Mus musculus; assay: as §1, with “po” for “ip”, “0.25” for “0.5”; format: functional; settings: 0.5 h
[11] = system: Mus musculus; assay: as §1, with “po” for “ip”; format: functional; settings: time 60 min, 1 h
[12] = system: Mus musculus; assay: as §1, with “po” for “ip”, “1” for “0.5”; format: functional; settings: time 1.5 hrs
[13] = system: Mus musculus; assay: as §1, with “po” for “ip”, “2” for “0.5”; format: functional; settings: time 2.5 hrs
[14] = system: Mus musculus; assay: as §1, with “po” for “ip”, “4” for “0.5”; format: functional; settings: time 4.5 hrs
[15] = system: Mus musculus; assay: as §1, with “1” for “0.5”; format: functional; settings: time 1.5 hrs
[16] = system: Mus musculus; assay: as §1, with “2” for “0.5”; format: functional; settings: time 2.5 hrs
[17] = system: Mus musculus; assay: as §1, with “4” for “0.5”; format: functional; settings: time 4.5 hrs
[18] = system: Mus musculus; assay: as §1, with “6” for “0.5”; format: functional; settings: time 6.5 hrs
[19] = Neurotoxicity in Swiss Albino mouse by rotarod test at 30 mg/kg. ip measured up to 120 mins by rotarod test; format: toxicity, organism-based; settings: in vivo, 2 h
[20] = Sub-acute toxicity in Wistar rat at 100 mg/kg, po for 14 days; format: organism-based; settings: in vivo, 336 h, time 14 day
[21] = Sub-acute toxicity in Wistar rat assessed as mortality level at 100 mg/kg, po for 14 days; format: organism-based; settings: in vivo, 336 h, time 14 day
[22] = Hematological toxicity in Wistar rat assessed as Hb level at 100 mg/kg, po for 14 days (reference value: 12.7 +/- 1.5 g/dL); format: organism-based; settings: in vivo, 336 h, time 14 day
[23] = Hematological toxicity in Wistar rat assessed as TLC level at 100 mg/kg, po for 14 days (reference value: 6.3 +/- 1.4 10^3/ml); format: organism-based; settings: in vivo, 336 h, time 14 day
[24] = Hematological toxicity in Wistar rat assessed as neutrophils level at 100 mg/kg, po for 14 days (reference value: 20.8 +/- 5.8%); format: organism-based; settings: in vivo, 336 h, time 14 day
[25] = Hematological toxicity in Wistar rat assessed as lymphocytes level at 100 mg/kg, po for 14 days (reference value: 74.6 +/- 4.3%); format: organism-based; settings: in vivo, 336 h, time 14 day
[26] = Hematological toxicity in Wistar rat assessed as eosinophils level at 100 mg/kg, po for 14 days (reference value: 2.3 +/- 1.2%); format: organism-based; settings: in vivo, 336 h, time 14 day
[27] = Hematological toxicity in Wistar rat assessed as monocytes level at 100 mg/kg, po for 14 days (reference value: 2.5 +/- 1.5%); format: organism-based; settings: in vivo, 336 h, time 14 day
[28] = Hematological toxicity in Wistar rat assessed as basophils level at 100 mg/kg, po for 14 days (reference value: 0.3 +/- 0.5%); format: organism-based; settings: in vivo, 336 h, time 14 day
[29] = Hematological toxicity in Wistar rat assessed as RBC level at 100 mg/kg, po for 14 days (reference value: 7.9 +/- 0.94 10^6/mm3); format: organism-based; settings: in vivo, 336 h, time 14 day
[30] = Hematological toxicity in Wistar rat assessed as platelet count level at 100 mg/kg, po for 14 days (reference value: 698 +/- 156 10^3/mm3); format: organism-based; settings: in vivo, 336 h, time 14 day
[31] = Hepatotoxicity in Wistar rat assessed as SGOT level at 100 mg/kg, po for 14 days (reference value: 59.9 +/- 11 U/L) by liver function test; format: toxicity, organism-based; settings: in vivo, 336 h, time 14 day
[32] = Hepatotoxicity in Wistar rat assessed as SGPT level at 100 mg/kg, po for 14 days (reference value: 59.2 +/- 12.5 U/L) by liver function test; format: toxicity, organism-based; settings: in vivo, 336 h, time 14 day
[33] = Hepatotoxicity in Wistar rat assessed as alkaline phosphatase level at 100 mg/kg, po for 14 days (reference value: 114.2 +/- 8.4 U/L) by liver function test; format: toxicity, organism-based; settings: in vivo, 336 h, time 14 day
[34] = Hepatotoxicity in Wistar rat assessed as total bilirubin level at 100 mg/kg, po for 14 days (reference value: 0.32 +/- 0.09 mg/dL) by liver function test; format: toxicity, organism-based; settings: in vivo, 336 h, time 14 day
[35] = Hepatotoxicity in Wistar rat assessed as total protein level at 100 mg/kg, po for 14 days (reference value: 6.35 +/- 0.46 g/dL) by liver function test; format: toxicity, organism-based; settings: in vivo, 336 h, time 14 day
[36] = Renal toxicity in Wistar rat assessed as blood urea level at 100 mg/kg, po for 14 days (Rvb =34.7 +/- 9.9 mg/dL) by kidney function test; format: organism-based; settings: in vivo, 336 h, time 14 day
[37] = Renal toxicity in Wistar rat assessed as creatinine level at 100 mg/kg, po for 14 days (reference value: 0.75 +/- 0.1 mg/dL) by kidney function test; format: organism-based; settings: in vivo, 336 h, time 14 day
[38] = Renal toxicity in Wistar rat assessed as uric acid level at 100 mg/kg, po for 14 days (reference value: 4.33 +/- 2.5 mg/dL) by kidney function test; format: organism-based; settings: in vivo, 336 h, time 14 day
[39] = Renal toxicity in Wistar rat assessed as calcium level at 100 mg/kg, po for 14 days (reference value: 10.3 +/- 1.8 mg/dL) by kidney function test; format: organism-based; settings: in vivo, 336 h, time 14 day
[40] = Renal toxicity in Wistar rat assessed as phosphorus level at 100 mg/kg, po for 14 days (reference value: 9.4 +/- 2.0 mg/dL) by kidney function test; format: organism-based; settings: in vivo, 336 h, time 14 day
[41] = Renal toxicity in Wistar rat assessed as Na+ level at 100 mg/kg, po for 14 days (reference value: 144 +/- 2.8 mequiv/L) by kidney function test; format: organism-based; settings: in vivo, 336 h, time 14 day
[42] = Renal toxicity in Wistar rat assessed as K+ level at 100 mg/kg, po for 14 days (reference value: 4.82 +/- 0.3 mequiv/L) by kidney function test; format: organism-based; settings: in vivo, 336 h, time 14 day
[43] = Renal toxicity in Wistar rat assessed as Cl- level at 100 mg/kg, po for 14 days (reference value: 105.5 +/- 6.5 mequiv/L) by kidney function test; format: organism-based; settings: in vivo, 336 h, time 14 day

Q: For NS(=O)(=O)c1ccc(CNC(=O)CCN2CCN(c3ncccn3)CC2)cc1, which Ki [1] is on record?
A: 0.455 µM

Q: With NS(=O)(=O)c1ccc(CNC(=O)CCN2CCN(C(c3ccccc3)c3ccccc3)CC2)cc1 as the compound, how does the Ki [1] read?
A: 0.89 µM

Q: Which Ki [1] does the source give for COc1ccc(N2CCN(CC(=O)NCc3ccc(S(N)(=O)=O)cc3)CC2)cc1 here?
A: 1.1 µM

Q: With NS(=O)(=O)c1ccc(CNC(=O)CN2CCN(C(c3ccccc3)c3ccccc3)CC2)cc1 as the compound, how does the Ki [1] read?
A: 1.68 µM

Q: With COc1ccc(N2CCN(CCC(=O)NCc3ccc(S(N)(=O)=O)cc3)CC2)cc1 as the compound, how does the Ki [1] read?
A: 0.136 µM

Q: What does the source list for NS(=O)(=O)c1ccc(CNC(=O)CN2CCN(c3ncccn3)CC2)cc1?
A: Ki [1]: 2.23 µM; Activity [2]: 50%; Activity [3]: 50%; Activity [4]: 67%; Activity [5]: 83%; Activity [6]: 33%; Activity [7]: 50%; Activity [8]: 50%; Activity [9]: 50%

Q: Which Ki [1] does the source give for NS(=O)(=O)c1ccc(CNC(=O)CCN2CCN(Cc3ccc4c(c3)OCO4)CC2)cc1 here?
A: 0.104 µM

Q: And the Activity [2]?
A: 67%

Q: And the Activity [3]?
A: 83%

Q: What about the Activity [4] of the same compound?
A: 67%

Q: And the Activity [5]?
A: 67%

Q: What about the Activity [6] of the same compound?
A: 83%

Q: What about the Activity [7] of the same compound?
A: 67%

Q: And the Activity [8]?
A: 50%

Q: And the Activity [9]?
A: 50%

Q: What about the Activity [10] of the same compound?
A: 17%

Q: What about the Activity [11] of the same compound?
A: 50%

Q: What about the Activity [12] of the same compound?
A: 67%

Q: What about the Activity [13] of the same compound?
A: 67%

Q: And the Activity [14]?
A: 50%

Q: And the Activity [15]?
A: 80%

Q: And the Activity [16]?
A: 60%

Q: And the Activity [17]?
A: 70%

Q: And the Activity [18]?
A: 50%

Q: And the Activity [19]?
A: Non-Toxic

Q: What about the Activity [20] of the same compound?
A: Non-Toxic

Q: What about the Activity [21] of the same compound?
A: Non-Toxic

Q: And the Activity [22]?
A: 12.6 g/dL

Q: And the Activity [23]?
A: 7.5 10^3/ml

Q: What about the Activity [24] of the same compound?
A: 22.3%

Q: What about the Activity [25] of the same compound?
A: 74%

Q: What about the Activity [26] of the same compound?
A: 2.3%

Q: And the Activity [27]?
A: 2.3%

Q: What about the Activity [28] of the same compound?
A: 0.16%

Q: And the Activity [29]?
A: 7.7 10^6/mm3

Q: And the Activity [30]?
A: 662.3 10^3/mm3

Q: What about the Activity [31] of the same compound?
A: 64.2 U/L

Q: What about the Activity [32] of the same compound?
A: 52.9 U/L

Q: What about the Activity [33] of the same compound?
A: 113.4 U/L

Q: And the Activity [34]?
A: 0.38 mg/dL

Q: What about the Activity [35] of the same compound?
A: 6.2 g/dL

Q: What about the Activity [36] of the same compound?
A: 39.8 mg/dL

Q: What about the Activity [37] of the same compound?
A: 0.75 mg/dL

Q: What about the Activity [38] of the same compound?
A: 2.73 mg/dL

Q: What about the Activity [39] of the same compound?
A: 9.9 mg/dL

Q: What about the Activity [40] of the same compound?
A: 6.8 mg/dL

Q: And the Activity [41]?
A: 144 mEq/L

Q: And the Activity [42]?
A: 4.9 mEq/L

Q: And the Activity [43]?
A: 104.3 mEq/L

Q: For NS(=O)(=O)c1ccc(CNC(=O)CCN2CCN(c3ccc(C(F)(F)F)cc3)CC2)cc1, which Ki [1] is on record?
A: 0.137 µM

Q: Which results are given for NS(=O)(=O)c1ccc(CNC(=O)CN2CCN(C(=O)OCc3ccccc3)CC2)cc1?
A: Ki [1]: 1.63 µM; Activity [2]: 17%; Activity [3]: 67%; Activity [4]: 67%; Activity [5]: 50%; Activity [6]: 67%; Activity [7]: 17%; Activity [8]: 50%; Activity [9]: 33%

Q: For NS(=O)(=O)c1ccc(CNC(=O)CN2CCN(Cc3ccccc3)CC2)cc1, which Ki [1] is on record?
A: 0.22 µM

Q: Which Ki [1] does the source give for Cc1ccc(N2CCN(CCC(=O)NCc3ccc(S(N)(=O)=O)cc3)CC2)cc1 here?
A: 0.0789 µM

Q: Which Ki [1] does the source give for NS(=O)(=O)c1ccc(CNC(=O)CN2CCN(c3ccc(C(F)(F)F)cc3)CC2)cc1 here?
A: 1.77 µM

Q: With NS(=O)(=O)c1ccc(CNC(=O)CCN2CCN(c3ccc(F)cc3)CC2)cc1 as the compound, how does the Ki [1] read?
A: 0.115 µM
